Values of other authors as cited in patent publication US20250009664A1, “DOSAGE FORM FOR INTRA-[…] INJECTION […] USE IN THE TREATMENT OF CRYSTAL-AND NON-CRYSTAL […] IN[…]” (priority 2021, published 2025).

Conditions: literature

COc1cc2c(c(OC)c1OC)-c1ccc(OC)c(=O)cc1[C@@H](NC(C)=O)CC2 [colchicine, N-[(7S)-1,2,3,10-tetramethoxy-9-oxo-6,7-dihydro-5H-benzo[a]heptalen-7-yl]acetamide]
lethal dose: 0.8 mg/kg | toxicity limit: 0.1 mg/kg
